From ChEMBL document CHEMBL1137496, “Inactivation of soybean sterol 24-C-methyltransferase by elongated sterol side chains at C26” (Bioorg Med Chem Lett, 2007)

How the values were obtained:
[1] = target: T1, S-adenosyl-L-methionine:delta24-sterol-C-methyltransferase (Glycine max, UniProt Q43445); experiment: (§1) Inhibition of soybean recombinant SMT expressed in Escherichia coli
T1 sequence (Q43445 whole entry): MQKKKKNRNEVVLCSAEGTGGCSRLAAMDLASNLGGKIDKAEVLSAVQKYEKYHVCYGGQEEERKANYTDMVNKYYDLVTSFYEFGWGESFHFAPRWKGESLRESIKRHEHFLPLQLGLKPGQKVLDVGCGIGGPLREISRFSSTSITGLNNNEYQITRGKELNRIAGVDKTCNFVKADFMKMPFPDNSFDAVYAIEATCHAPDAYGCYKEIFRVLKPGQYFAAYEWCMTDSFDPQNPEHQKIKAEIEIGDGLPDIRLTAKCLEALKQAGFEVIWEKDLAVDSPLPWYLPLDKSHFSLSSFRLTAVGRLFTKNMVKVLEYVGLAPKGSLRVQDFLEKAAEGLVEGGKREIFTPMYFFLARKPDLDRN

[2] = target: T2, S-adenosyl-L-methionine:delta24-sterol-C-methyltransferase (Glycine max) (UniProt Q43445); experiment: as §1
T2 sequence (whole entry): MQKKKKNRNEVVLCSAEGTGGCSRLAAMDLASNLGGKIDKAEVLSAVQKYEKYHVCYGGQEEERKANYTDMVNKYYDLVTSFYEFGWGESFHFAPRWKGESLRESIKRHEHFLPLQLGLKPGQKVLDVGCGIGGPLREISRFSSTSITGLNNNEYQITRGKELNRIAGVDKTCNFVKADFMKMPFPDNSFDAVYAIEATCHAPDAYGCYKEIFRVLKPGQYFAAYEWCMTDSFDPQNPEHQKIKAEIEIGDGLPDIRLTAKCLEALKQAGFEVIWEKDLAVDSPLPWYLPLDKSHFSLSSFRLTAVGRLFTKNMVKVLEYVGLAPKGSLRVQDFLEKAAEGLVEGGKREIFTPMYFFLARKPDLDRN

[3] = target: T2, S-adenosyl-L-methionine:delta24-sterol-C-methyltransferase (Glycine max); experiment: Ratio of Kcat to Kinact for soybean recombinant SMT expressed in Escherichia coli
[4] = target: T2, S-adenosyl-L-methionine:delta24-sterol-C-methyltransferase (Glycine max); experiment: Inhibition of soybean recombinant SMT expressed in Escherichia coli assessed as C-methylation in presence of 50 uM cycloartenol substrate; design: scale not given: the % may be the effect or the level left
[5] = target: T2, S-adenosyl-L-methionine:delta24-sterol-C-methyltransferase (Glycine max); experiment: Inhibition of soybean recombinant SMT expressed in Escherichia coli assessed as C-methylation in presence of 100 uM cycloartenol substrate; design: scale not given: the % may be the effect or the level left
[6] = substrate: C=C/C(C)=C/CCC(C)[C@H]1CC[C@@]2(C)[C@@H]3CC[C@H]4C(C)(C)[C@@H](O)CCC45CC35CC[C@]12C; experiment: (§2) Activity of soybean recombinant SMT expressed in Escherichia coli; conditions: Glycine max
[7] = substrate: C#C/C(C)=C/CCC(C)[C@H]1CC[C@@]2(C)[C@@H]3CC[C@H]4C(C)(C)[C@@H](O)CCC45CC35CC[C@]12C; experiment: as §2; conditions: Glycine max

CC(C)=CCC[C@@H](C)[C@H]1CC[C@@]2(C)[C@@H]3CC[C@H]4C(C)(C)[C@@H](O)CCC45CC35CC[C@]12C (stereo partly specified)
Ki [1]: 42 µM | Kinact [2]: 0.29 min⁻¹

C#C/C(C)=C/CCC(C)[C@H]1CC[C@@]2(C)[C@@H]3CC[C@H]4C(C)(C)[C@@H](O)CCC45CC35CC[C@]12C (stereo partly specified)
Ratio [3]: 0.001 | IC50 [1]: 67 µM | Kinact [2]: 0.06 min⁻¹

C=C/C(C)=C/CCC(C)[C@H]1CC[C@@]2(C)[C@@H]3CC[C@H]4C(C)(C)[C@@H](O)CCC45CC35CC[C@]12C (stereo partly specified)
Activity [4]: 25% | Activity [5]: 45% | Ratio [3]: 0.001 | Ki [1]: 47 µM | Kinact [2]: 0.24 min⁻¹

CC(C)SCC[C@@H](C)[C@H]1CC[C@@]2(C)[C@@H]3CC[C@H]4C(C)(C)[C@@H](O)CCC45CC35CC[C@]12C (stereo partly specified)
Ki [1]: 2 µM | Kinact [2]: 0.3 min⁻¹

B1: S-adenosyl-L-methionine:delta24-sterol-C-methyltransferase (Glycine max), Q43445 (protein)
chain: MQKKKKNRNEVVLCSAEGTGGCSRLAAMDLASNLGGKIDKAEVLSAVQKYEKYHVCYGGQEEERKANYTDMVNKYYDLVTSFYEFGWGESFHFAPRWKGESLRESIKRHEHFLPLQLGLKPGQKVLDVGCGIGGPLREISRFSSTSITGLNNNEYQITRGKELNRIAGVDKTCNFVKADFMKMPFPDNSFDAVYAIEATCHAPDAYGCYKEIFRVLKPGQYFAAYEWCMTDSFDPQNPEHQKIKAEIEIGDGLPDIRLTAKCLEALKQAGFEVIWEKDLAVDSPLPWYLPLDKSHFSLSSFRLTAVGRLFTKNMVKVLEYVGLAPKGSLRVQDFLEKAAEGLVEGGKREIFTPMYFFLARKPDLDRN
Km [6]: 5 µM | kcat [6]: 0.0003 min⁻¹ | Km [7]: 2 µM | kcat [7]: 5e-05 min⁻¹
